{"source": "paper PMC6081459", "about": "“Pathogen-derived HLA-E bound epitopes reveal broad primary anchor pocket tolerability and conformationally malleable peptide binding” (Nature Communications, 2018)", "key": {"HLA-E-β2m complexes [1]": {"test_system": "HLA-E-β2m complexes", "assay_type": "binding, human", "details": "200 M excess peptide, 2 h at room temperature"}, "[2]": {"test_system": "Mamu-E restricted CD8^+ T cells", "assay_type": "cell-based, rhesus macaques (Macaca mulatta)"}, "HLA-E-β2m complexes [3]": {"test_system": "HLA-E-β2m complexes", "assay_type": "binding, human", "details": "for Thermal melt (Tm) of peptide-refolded HLA-E-β2m complex: Protein Thermal Shift dye, 5 μg complex, ramp 25 to 95 °C, quadruplicate, median Derivative Tm"}, "[4]": {"test_system": "Mamu-E-restricted CD8+ T cells", "assay_type": "cell-based, rhesus macaques"}}, "note": "Read-outs that look alike come from different tables or passages of the source.", "data": [{"sequence": "RLPAKAPLL [Mtb44]", "values": [{"measurement": "Displacement of VL9 from pre-refolded HLA-E-β2m-VL9 complexes (BN-PAGE)", "setting": "HLA-E-β2m complexes [1]", "value": "readily displaced"}, {"measurement": "Mamu-E restricted CD8+ T cell responses (IFNγ and/or TNFα, ICS)", "setting": "[2]", "value": "elicited Mamu-E-restricted CD8^+ T cell responses"}, {"measurement": "Thermal melt (Tm) of peptide-refolded HLA-E-β2m complex", "setting": "HLA-E-β2m complexes [3]", "value": 50.2, "unit": "°C"}, {"measurement": "Rhesus CD8+ T cell responses to peptide presented by Mamu-E versus HLA-E", "setting": "[4]", "value": "of comparable magnitude"}]}, {"sequence": "RMYSPTSIL [RL9HIV]", "values": [{"measurement": "Displacement of VL9 from pre-refolded HLA-E-β2m-VL9 complexes (BN-PAGE)", "setting": "HLA-E-β2m complexes [1]", "value": "also displaced VL9 from HLA-E-β2m complexes"}, {"measurement": "Mamu-E restricted CD8+ T cell responses (IFNγ and/or TNFα, ICS)", "setting": "[2]; PBMC of six RM vaccinated with HIVGag-insert RhCMV68-1 vector, blocking with VL9 (MHC-E) or CLIP + anti-MHC-II", "value": "elicited Mamu-E restricted CD8^+ T cell responses"}, {"measurement": "Thermal melt (Tm) of peptide-refolded HLA-E-β2m complex", "setting": "HLA-E-β2m complexes [3]", "value": "not possible to obtain a reproducible thermal melt pattern"}, {"measurement": "Rhesus CD8+ T cell responses to peptide presented by Mamu-E versus HLA-E", "setting": "[4]", "value": "of comparable magnitude"}]}, {"sequence": "VMAPRTVLL [VL9, reference compound]", "values": [{"measurement": "Increase in stability (Tm) of the HLA-E-β2m complex versus no peptide refolded forms", "setting": "HLA-E-β2m complexes [3]", "value": "≤ 10", "unit": "°C"}, {"measurement": "Thermal melt (Tm) of peptide-refolded HLA-E-β2m complex", "setting": "HLA-E-β2m complexes [3]", "value": 47.5, "unit": "°C"}]}]}
